# From patent US12479816B2, “20-HETE formation inhibitors” (UNIVERSITY OF PITTSBURGH—OF THE COMMONWEALTH SYSTEM OF …, priority 2019, dated 2025)
# pIC50: −log10 of the molar value.
# Legend:
# rCYP4F2 = biological target: T1, rCYP4F2 (Homo sapiens, UniProt P78329); test: Inhibition of 20-HETE formation at 250 or 500 nM in rCYP4F2 incubations; type: biochemical; conditions: rCYP4F2 25 pmol/mL; for inhibition at 0.25 µM: 250 nM compound, read-out: rCYP4F2 % inh. @ 250 nM; for inhibition at 0.5 µM: 500 nM compound, read-out: rCYP4F2 % inh. @ 500 nM
# T1 sequence (P78329 5-520): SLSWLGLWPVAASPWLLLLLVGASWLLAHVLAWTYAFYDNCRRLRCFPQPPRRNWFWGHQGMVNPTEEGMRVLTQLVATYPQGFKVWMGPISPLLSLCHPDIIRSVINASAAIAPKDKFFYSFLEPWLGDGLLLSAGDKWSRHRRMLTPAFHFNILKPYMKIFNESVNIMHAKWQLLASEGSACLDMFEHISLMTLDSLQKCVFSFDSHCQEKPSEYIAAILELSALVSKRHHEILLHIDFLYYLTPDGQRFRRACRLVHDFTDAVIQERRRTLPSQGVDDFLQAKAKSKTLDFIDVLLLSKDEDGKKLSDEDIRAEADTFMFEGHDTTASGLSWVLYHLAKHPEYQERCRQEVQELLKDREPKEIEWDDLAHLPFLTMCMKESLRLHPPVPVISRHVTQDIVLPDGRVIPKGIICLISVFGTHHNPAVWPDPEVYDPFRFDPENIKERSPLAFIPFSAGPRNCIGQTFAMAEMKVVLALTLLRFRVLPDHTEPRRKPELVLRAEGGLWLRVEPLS
# Outline: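 20-HETE formation, measured by UPLC-MS/MS after ether extraction, is reported as percentage of vehicle control, triplicates. Incubations: 300 μg/ml microsomal protein or 25 pmol/mL rCYP4F2, AA 100 μM, NADPH 1 mM, 20 min at 37° C.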
# [1] = system: 20-HETE formation (CYP4) in RLM; test: IC50 determination, 20-HETE formation in RLM; type: biochemical, rat; conditions: RLM 300 μg/ml, AA 100 μM, 12 concentrations
# Description: Microsomal incubations contained HLM, RLM (300 μg/ml), AA (100 μM), NADPH (1 mM) and test compounds at 12 concentrations (0.1 nM-50 μM) in a 1 ml total volume in microsomal incubation buffer (0.12 M potassium phosphate buffer containing 5 mM magnesium chloride). Reaction was started by adding NADPH to the incubates and was carried out at 37° C. in a shaking water bath for 20 min. Reaction was stopped by placing tubes on ice, followed by adding 12.5 μl 20-HETE-d6 as internal standard to each sample. Microsomal incubations were extracted with 3 ml ethyl ether twice, dried down under nitrogen gas and reconstituted in 125 μl 80:20 methanol:deionized H2O for analysis. 20-HETE formation was quantified using the validated UPLC-MS/MS assay described above and normalized by vehicle group. HET0016 (250 nM) was used as positive control. Incubates without NADPH group served as the negative control. IC50 was determined by fitting the dose-response curve using Graphpad Prism nonlinear regression.
Compound,inhibition at 0.25 µM (rCYP4F2),inhibition at 0.5 µM (rCYP4F2),pIC50 [1]
"c1ccc(CC2CCN(c3cn[nH]c3)CC2)cc1 [Compound 3, 4-Benzyl-1-(1H-pyrazol-4-yl)piperidine]",–,77%,–
"COc1ccc(C2CCN(c3ccn[nH]3)CC2)cc1 [Compound 19, 4-(4-Methoxyphenyl)-1-(1H-pyrazol-5-yl)piperidine]",–,41.4%,–
"c1ccc(C2CCN(c3ccn[nH]3)CC2)cc1 [Compound 54, 4-Phenyl-1-(1H-pyrazol-5-yl)piperidine]",53.6%,–,–
"O=C1CCCN1Cc1ccc(C2CCN(c3cn[nH]c3)CC2)cc1 [Compound 83, 1-(4-(1-(1H-Pyrazol-4-yl)piperidin-4-yl)benzyl)pyrrolidin-2-one]",–,96.2%,6.14
"Clc1ccc(CC2CCN(c3cn[nH]c3)CC2)cc1 [Compound 93, 4-(4-Chlorobenzyl)-1-(1H-pyrazol-4-yl)piperidine]",–,97%,6.92
"O=C1CCCN1c1ccc(C2CCN(c3cn[nH]c3)CC2)cc1 [Compound 100, 1-(4-(1-(1H-Pyrazol-4-yl)piperidin-4-yl)phenyl)pyrrolidin-2-one]",–,81.2%,6.24

# Further lines, results first:
inhibition at 0.25 µM (rCYP4F2),inhibition at 0.5 µM (rCYP4F2),pIC50 [1],Compound
78.5%,–,–,"c1ccc(C2CCN(c3cn[nH]c3)CC2)cc1 [Compound 1, 4-Phenyl-1-(1H-pyrazol-4-yl)piperidine]"
–,67.7%,–,"COc1ccc(C2CCN(c3cn[nH]c3)CC2)cc1 [Compound 20, 4-(4-Methoxyphenyl)-1-(1H-pyrazol-4-yl)piperidine]"
–,58%,–,"CC(=O)N(C)c1ccc(C2CCN(c3cn[nH]c3)CC2)cc1 [Compound 28, N-(4-(1-(1H-Pyrazol-4-yl)piperidin-4-yl)phenyl)-N-methylacetamide]"
–,86%,–,"Cc1cccc(C2CCN(c3cn[nH]c3)CC2)c1 [Compound 34, 1-(1H-Pyrazol-4-yl)-4-(m-tolyl)piperidine]"
